Like-named read-outs stand apart in the source and are kept apart here. Peptide text beside a SMILES is read from it. * marks the point of attachment. Stearoyl = CCCCCCCCCCCCCCCCCC(=O)*
Tests used:
HIV-1NL4-3 pseudovirus = test: Ex vivo inhibitory activity of sera from monkeys administrated LP-80 (single-cycle infection assay); type: in vivo, Chinese rhesus macaques; settings: monkey sera after SC 3 mg/kg
Description: (§1) A single-cycle infection assay was performed to determine the inhibitory activity of the monkey sera on HIV-1NL4-3 pseudovirus. The 50% effective concentration was defined as the fold serum dilution that inhibited 50% of virus infection.

in vivo [1] = settings: Sprague-Dawley, rat, 6 mg/kg
in vivo [2] = settings: rhesus monkey, sc, 3 mg/kg
Description: as §1

[3] = Rat IV, 6 mg/kg, n = 6; serum, LC-MS/MS, non-compartmental
[4] = molecular target: T1, gp41 NHR-derived target mimic peptide N39 (Human immunodeficiency virus type 1 group M subtype B, UniProt P04578); test: CD spectroscopy of lipopeptides in complex with target mimic peptide N39; type: binding, HIV-1; parameters: [θ]222: unit not given here; settings: complex with N39, each peptide 10 μM in PBS; representative of 2 assays
T1 construct: the gp41 NHR-derived target mimic peptide N39
From the text: Spectra were corrected by subtracting a solvent blank.

NL4-3V38A pseudovirus = type: cell-based, HIV-1; settings: T-20 resistant, mean ± SD of 3 assays in triplicate
Description: (§2) The inhibitory activities of inhibitors against HIV-1 pseudoviruses and replication-competent isolates were measured as described previously. Briefly, HIV-1 pseudoviruses were generated via the cotransfection of HEK293T cells with an Env-expressing plasmid and a backbone plasmid that encodes Env-defective, luciferase-expressing HIV-1 genome (pSG3Δenv). Viral stocks of replication-competent HIV-1 isolates were generated by transfecting viral molecular clones into HEK293T cells. […] Inhibitors were prepared in 3-fold dilutions, mixed with 100 TCID50 of a virus, and then incubated for 1 h at room temperature. […] Luciferase activity was measured as described above.

NL4-3N43K pseudovirus = type: cell-based, HIV-1; settings: T-20 resistant, mean ± SD of 3 assays in triplicate
Description: as §2

NL4-3Q40H pseudovirus = type: cell-based, HIV-1; settings: T-20 resistant, mean ± SD of 3 assays in triplicate
Description: as §2

NL4-3I37T pseudovirus = type: cell-based, HIV-1; settings: T-20 resistant, mean ± SD of 3 assays in triplicate
Description: as §2

[5] = system: NL4-3I37T/N43K pseudovirus; type: cell-based, HIV-1; settings: T-20 resistant, mean ± SD of 3 assays in triplicate
Description: as §2

NL4-3V38M pseudovirus = type: cell-based, HIV-1; settings: T-20 resistant, mean ± SD of 3 assays in triplicate
Description: as §2

[6] = system: NL4-3G36S/V38M pseudovirus; type: cell-based, HIV-1; settings: T-20 resistant, mean ± SD of 3 assays in triplicate
Description: as §2

[7] = lipopeptide alone, 10 μM in PBS, representative of 2 assays
[8] = rat, in vivo, sc, 6 mg/kg
SHIVSF162P3 = test: Therapeutic efficacy in chronically SHIV-infected rhesus monkeys; type: in vivo, Chinese rhesus macaques
[9] = system: HIV-1NL4-3(D36G) pseudovirus; type: cell-based
Method in brief: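 Env-pseudotyped luciferase reporter viruses (pSG3Δenv backbone) made in HEK293T cells. 3-fold inhibitor dilutions preincubated 1 h at room temperature with 100 TCID50 virus before infection. Inhibition read as luciferase activity.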

T1 sequence (P04578 528-566): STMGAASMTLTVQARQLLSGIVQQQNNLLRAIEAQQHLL

CCCCCCCCCCCCCCCCCC(=O)NCCCC[C@H](NC(=O)[C@H](CCC(=O)O)NC(=O)[C@H](CC(C)C)NC(=O)[C@H](CCCCN)NC(=O)[C@H](CCCCN)NC(=O)[C@H](CC(C)C)NC(=O)[C@H](CCC(=O)O)NC(=O)[C@H](CCC(=O)O)NC(=O)[C@H](CCC(=O)O)NC(=O)[C@H](CC(N)=O)NC(=O)[C@H](CCCCN)NC(=O)[C@H](CCCCN)NC(=O)[C@H](CCC(N)=O)NC(=O)[C@H](CCC(N)=O)NC(=O)[C@H](CCC(=O)O)NC(=O)[C@H](CCC(=O)O)NC(=O)[C@H](C)NC(=O)[C@H](CCCCN)NC(=O)[C@H](CCCCN)NC(=O)[C@H](CC(C)C)NC(=O)[C@H](CC(C)C)NC(=O)[C@H](CCC(=O)O)NC(=O)[C@H](CCC(=O)O)NC(=O)[C@@H](NC(=O)[C@H](CCCCN)NC(=O)[C@H](CCC(N)=O)NC(=O)[C@H](CCC(=O)O)NC(=O)[C@H](Cc1c[nH]c2ccccc12)NC(C)=O)[C@@H](C)CC)C(N)=O [LP-80] (Ac-WEQKIEELLKKAEEQQKKNEEELKKLEK(Stearoyl)-NH2)
Time of peak serum inhibitory activity after injection (HIV-1NL4-3 pseudovirus): 6 to 8 h
level at 72 h (in vivo [1]): ~7 ng/mL
AUC(0-inf) (in vivo [1]; iv): 288 ± 49.4 µg·h/mL
AUC(0-t) (in vivo [1]; iv): 288 ± 49.4 µg·h/mL
Cmax (in vivo [1]; iv): 53300 ± 10600 ng/mL
MRT (in vivo [1]; iv): 7.53 ± 0.85 h
Tmax (in vivo [1]; iv): 0.08 h
Vd (in vivo [1]; iv): 0.183 ± 0.0216 L/kg
AUC(0-inf) (in vivo [1]; sc): 114 ± 33.6 µg·h/mL
AUC(0-t) (in vivo [1]; sc): 114 ± 33.6 µg·h/mL
CL/F (in vivo [1]; sc): 0.958 mL/min/kg
Cmax (in vivo [1]; sc): 7650 ± 1580 ng/mL
MRT (in vivo [1]; sc): 9.73 ± 1.11 h
Tmax (in vivo [1]; sc): 4 ± 2.19 h
Injection site reactions (ISRs) (SC 3 mg/kg during the treatment): did not cause significant injection site reactions
TG (after 1st treatment (DPI 263), before (DPI 191) 0.58 ± 0.14): 0.51 ± 0.07 mmol/L
IgA (after 1st treatment (DPI 263), before (DPI 191) 0.93 ± 0.33): 1.05 ± 0.12 g/L
IgM (after 1st treatment (DPI 263), before (DPI 191) 1.28 ± 0.6): 1.12 ± 0.56 g/L
LDL-C (after 1st treatment (DPI 263), before (DPI 191) 1.73 ± 0.44): 1.56 ± 0.37 mmol/L
Ca (after 1st treatment (DPI 263), before (DPI 191) 2.36 ± 0.11): 2.4 ± 0.06 mmol/L
HDL-C (after 1st treatment (DPI 263), before (DPI 191) 2.46 ± 0.07): 1.96 ± 0.26 mmol/L
UA (after 1st treatment (DPI 263), before (DPI 191) 3.08 ± 0.61): 3.25 ± 0.54 µmol/L
GLU (after 1st treatment (DPI 263), before (DPI 191) 4.32 ± 0.32): 5.02 ± 0.98 mmol/L
CHO (after 1st treatment (DPI 263), before (DPI 191) 4.42 ± 0.19): 3.90 ± 0.53 mmol/L
ALP (after 1st treatment (DPI 263), before (DPI 191) 4.6 ± 1.52): 4.2 ± 1.3 U/L
K (after 1st treatment (DPI 263), before (DPI 191) 4.62 ± 0.13): 4.56 ± 0.18 mmol/L
TBIL (after 1st treatment (DPI 263), before (DPI 191) 6.11 ± 1.57): 5.52 ± 0.82 µmol/L
IgG (after 1st treatment (DPI 263), before (DPI 191) 7.12 ± 0.72): 8.6 ± 1.74 g/L
GGT (after 1st treatment (DPI 263), before (DPI 191) 7.4 ± 1.82): 9.2 ± 3.83 U/L
UN (after 1st treatment (DPI 263), before (DPI 191) 8.14 ± 2): 8.38 ± 0.74 mmol/L
AST (after 1st treatment (DPI 263), before (DPI 191) 32.4 ± 3.29): 30.8 ± 3.27 U/L
CK (after 1st treatment (DPI 263), before (DPI 191) 46.4 ± 9.81): 56.6 ± 10.01 U/L
TP (after 1st treatment (DPI 263), before (DPI 191) 74 ± 4.53): 71.26 ± 1.76 g/L
TG (after 2nd treatment (DPI 508), before (DPI 325) 0.67 ± 0.13): 0.62 ± 0.21 mmol/L
IgA (after 2nd treatment (DPI 508), before (DPI 325) 0.76 ± 0.31): 0.86 ± 0.18 g/L
IgM (after 2nd treatment (DPI 508), before (DPI 325) 1.41 ± 0.29): 1.49 ± 0.29 g/L
P (after 2nd treatment (DPI 508), before (DPI 325) 1.74 ± 0.19): 1.29 ± 0.24 mmol/L
HDL-C (after 2nd treatment (DPI 508), before (DPI 325) 2.46 ± 0.31): 2.66 ± 0.45 mmol/L
UA (after 2nd treatment (DPI 508), before (DPI 325) 2.54 ± 0.28): 2.54 ± 0.73 µmol/L
CHO (after 2nd treatment (DPI 508), before (DPI 325) 3.87 ± 0.44): 4.02 ± 0.51 mmol/L
K (after 2nd treatment (DPI 508), before (DPI 325) 4.7 ± 0.2): 4.64 ± 0.26 mmol/L
TBIL (after 2nd treatment (DPI 508), before (DPI 325) 5.92 ± 0.9): 5.52 ± 0.9 µmol/L
UN (after 2nd treatment (DPI 508), before (DPI 325) 9.34 ± 1.26): 7.99 ± 0.92 mmol/L
ALT (after 2nd treatment (DPI 508), before (DPI 325) 12.8 ± 3.27): 13.2 ± 2.86 U/L
AST (after 2nd treatment (DPI 508), before (DPI 325) 27.2 ± 3.11): 31.4 ± 4.45 U/L
CK (after 2nd treatment (DPI 508), before (DPI 325) 54.6 ± 10.74): 55.4 ± 14.19 U/L
Systemic toxicities (blood biochemical parameters, CD4+ and CD8+ T lymphocytes monitored): No systemic toxicities were observed
ALP (rhesus monkey, in vivo): 7.4 ± 2.07 U/L
ALT (rhesus monkey, in vivo): 15.8 ± 3.27 U/L
Ca (rhesus monkey, in vivo): 2.19 ± 0.03 mmol/L
GGT (rhesus monkey, in vivo): 10.4 ± 1.95 U/L
IgG (rhesus monkey, in vivo): 8.52 ± 1.32 g/L
LDH (rhesus monkey, in vivo): 262.8 ± 48.26 U/L
LDL-C (rhesus monkey, in vivo): 1.32 ± 0.32 mmol/L
P (rhesus monkey, in vivo): 0.98 ± 0.07 mmol/L
TP (rhesus monkey, in vivo): 71.15 ± 2.86 g/L
AUC(0-inf) (in vivo [2]): 601 ± 29.3 µg·h/mL
AUC(0-t) (in vivo [2]): 601 ± 29.3 µg·h/mL
CL/F (in vivo [2]): 0.0833 mL/min/kg
Cmax (in vivo [2]): 24800 ± 10800 ng/mL
MRT (in vivo [2]): 23.7 ± 2.26 h
Tmax (in vivo [2]): 5.83 ± 3.82 h
Vd/F (in vivo [2]): 0.0989 ± 0.0034 L/kg
half-life (in vivo [2]): 13.7 ± 0.86 h
Cl_F_obs/Cl_obs [3]: 0.3552 ± 0.0563 mL/min/kg
Helix content (%) [4]: 57%
[θ]222 [4]: -18955
IC50 (NL4-3V38A pseudovirus): 0.23 ± 0.03 nM
IC50 (NL4-3N43K pseudovirus): 0.25 ± 0.02 nM
IC50 (NL4-3Q40H pseudovirus): 0.13 ± 0.02 nM
IC50 (NL4-3I37T pseudovirus): 0.05 nM
IC50 [5]: 3.79 ± 0.05 nM
IC50 (NL4-3V38M pseudovirus): 0.13 ± 0.02 nM
IC50 [6]: 0.07 ± 0.01 nM
Helix content (%) ([7]; [θ]222 / -33,000): 52%
Tm (°C) ([7]; ellipticity at 222 nm, 20-98°C, 2°C/min): 56 °C
Vd/F [8]: 0.535 ± 0.251 L/kg
Plasma viral load (SHIVSF162P3; 1st treatment, SC 3 mg/kg once daily, monkeys K3 and K5, 8 days after treatment, detection limit 100 copies/ml): declined to below the detection limit
Viral replication during treatment (SHIVSF162P3; 1st treatment, SC 3 mg/kg once every 4 days for 4 weeks, five monkeys): fully controlled
Viral rebound during treatment (SHIVSF162P3; 2nd treatment, SC 3 mg/kg twice weekly for 6 months): no viral rebound was detected
Plasma viral load after one injection (SHIVSF162P3; 2nd treatment, SC 3 mg/kg twice weekly, all five monkeys, day 4, before: mean 4.5 log10 RNA copies/ml): below the detection limit
PBMC vDNA load (SHIVSF162P3; 2nd treatment, monkeys K1, K2, K4, K5, detection limit 100 copies/μg total DNA): undetectable levels
Time to viral load rebound after LP-80 was stopped (SHIVSF162P3; after 1st treatment, all treated monkeys): 10 to 21 days
Time to virus rebound after LP-80 cessation (SHIVSF162P3; after 2nd treatment, four monkeys (K1 to K4)): 14 to 28 days
Viral load after LP-80 withdrawal (SHIVSF162P3; after 2nd treatment, monkey K5, 2 months after withdrawal): remained undetectable
Mean PBMC vDNA load (SHIVSF162P3; after a 2-month treatment (2nd treatment), declined from 3.7, quantitative PCR): 2.3 log10 vDNA copies/μg total DNA
IC50 ([9]; Fig 1, NL4-3(D36G) pseudovirus, mean ± SD of three assays in triplicate, read-out: Anti-HIV activity (IC50, pM) NL4-3 entry): 1.62 pM
IC50 ([9]; Table 4, NL4-3D36G, T-20 sensitive, mean ± SD of 3 assays in triplicate, value in parentheses behind the bound, read-out: IC50): < 10 pM
